From US10238670B2, “9-aminomethyl minocycline compounds and methods of use thereof in urinary tract infection (UTI) treatment” (Paratek Pharmaceuticals, Inc., priority 2016, dated 2019)
Converted amounts (≈) assume the structure as drawn. Like-named read-outs stand apart in the source and are kept apart here.

What was measured:
Experiment in all cases: In vitro MIC, 2010 surveillance isolates
E. cloacae CeftazR = assay type: cell-based; details: for Cumulative % Inhibition at MIC: N=254
E. faecium VNS = assay type: cell-based; details: for Cumulative % Inhibition at MIC: N=614
E. coli ESBL− = assay type: cell-based, Escherichia coli; details: for Cumulative % Inhibition at MIC: N=3376
MR CoNS = assay type: cell-based, Coagulase-Negative Staphylococcus; details: for Cumulative % Inhibition at MIC: N=1349
K. pneumoniae ESBL+ = assay type: cell-based, Klebsiella pneumoniae; details: for Cumulative % Inhibition at MIC: N=592
E. cloacae CeftazS = assay type: cell-based; details: for Cumulative % Inhibition at MIC: N=550
E. faecalis VS = assay type: cell-based; details: for Cumulative % Inhibition at MIC: N=2036
A. baumanii = assay type: cell-based
Acinetobacter spp = assay type: cell-based; details: for range of MICs (N <10, shown instead of MIC90): N=9
Enterobacter spp = assay type: cell-based

Compound: CN(C)c1cc(CNCC(C)(C)C)c(O)c2c1C[C@H]1C[C@H]3[C@H](N(C)C)C(O)=C(C(N)=O)C(=O)[C@@]3(O)C(O)=C1C2=O [Compound 1, 9-[(2,2-dimethyl-propylamino)-methyl]-minocycline]
- Cumulative % Inhibition at MIC (E. cloacae CeftazR; MIC 16 μg/ml): 94.1%
- Cumulative % Inhibition at MIC (E. cloacae CeftazR; MIC ≤0.5 μg/ml, listed as head image P00015): 0.4%
- Cumulative % Inhibition at MIC (E. cloacae CeftazR; MIC ≥32 μg/ml): 100%
- MIC90 (E. cloacae CeftazR; N America, N=77): 16 µg/mL (≈ 28.7 µM)
- MIC90 (E. faecium VNS; Asia/Pac, N=24): 0.25 µg/mL (≈ 0.449 µM)
- MIC90 (E. faecium VNS; Europe, N=71): 0.25 µg/mL (≈ 0.449 µM)
- MIC90 (E. faecium VNS; L. Amer, N=41): 0.12 µg/mL (≈ 0.216 µM)
- Cumulative % Inhibition at MIC (E. faecium VNS; MIC 1 μg/ml): 100%
- Cumulative % Inhibition at MIC (E. faecium VNS; MIC ≤0.5 μg/ml, listed as head image P00004): 98.4%
- MIC90 (E. faecium VNS; N America, N=478): 0.25 µg/mL (≈ 0.449 µM)
- MIC90 (E. coli ESBL−; Asia/Pac, N=282): 2 µg/mL (≈ 3.59 µM)
- MIC90 (E. coli ESBL−; Escherichia coli, ESBL-negative E. coli, read-out: MIC90): 2 µg/mL (≈ 3.59 µM)
- MIC90 (E. coli ESBL−; Europe, N=1533): 2 µg/mL (≈ 3.59 µM)
- MIC90 (E. coli ESBL−; L. Amer, N=389): 2 µg/mL (≈ 3.59 µM)
- Cumulative % Inhibition at MIC (E. coli ESBL−; MIC 1 μg/ml): 84.2%
- Cumulative % Inhibition at MIC (E. coli ESBL−; MIC 2 μg/ml): 95.9%
- Cumulative % Inhibition at MIC (E. coli ESBL−; MIC 4 μg/ml): 99.3%
- Cumulative % Inhibition at MIC (E. coli ESBL−; MIC 8 μg/ml): 99.9%
- Cumulative % Inhibition at MIC (E. coli ESBL−; MIC 16 μg/ml): 100%
- Cumulative % Inhibition at MIC (E. coli ESBL−; MIC ≤0.5 μg/ml, listed as head image P00005): 54.2%
- Cumulative % Inhibition at MIC (E. coli ESBL−; MIC ≥32 μg/ml): 100%
- MIC90 (E. coli ESBL−; N America, N=1172): 2 µg/mL (≈ 3.59 µM)
- MIC90 (MR CoNS; Asia/Pac, N=77): 1 µg/mL (≈ 1.8 µM)
- MIC90 (MR CoNS; Europe, N=510): 1 µg/mL (≈ 1.8 µM)
- MIC90 (MR CoNS; L. Amer, N=301): 1 µg/mL (≈ 1.8 µM)
- Cumulative % Inhibition at MIC (MR CoNS; MIC 1 μg/ml): 99.1%
- Cumulative % Inhibition at MIC (MR CoNS; MIC 2 μg/ml): 100%
- Cumulative % Inhibition at MIC (MR CoNS; MIC ≤0.5 μg/ml): 85.9%
- MIC90 (MR CoNS; N America, N=461): 1 µg/mL (≈ 1.8 µM)
- MIC90 (K. pneumoniae ESBL+; Asia/Pac, N=124): 16 µg/mL (≈ 28.7 µM)
- MIC90 (K. pneumoniae ESBL+; Europe, N=151): 8 µg/mL (≈ 14.4 µM)
- MIC90 (K. pneumoniae ESBL+; L. Amer, N=209): 16 µg/mL (≈ 28.7 µM)
- Cumulative % Inhibition at MIC (K. pneumoniae ESBL+; MIC 1 μg/ml): 19.3%
- Cumulative % Inhibition at MIC (K. pneumoniae ESBL+; MIC 2 μg/ml): 56.8%
- Cumulative % Inhibition at MIC (K. pneumoniae ESBL+; MIC 4 μg/ml): 79.6%
- Cumulative % Inhibition at MIC (K. pneumoniae ESBL+; MIC 8 μg/ml): 90.2%
- Cumulative % Inhibition at MIC (K. pneumoniae ESBL+; MIC 16 μg/ml): 94.8%
- Cumulative % Inhibition at MIC (K. pneumoniae ESBL+; MIC ≤0.5 μg/ml, listed as head image P00010): 1.7%
- Cumulative % Inhibition at MIC (K. pneumoniae ESBL+; MIC ≥32 μg/ml): 100%
- MIC90 (K. pneumoniae ESBL+; N America, N=108): 16 µg/mL (≈ 28.7 µM)
- MIC90 (E. cloacae CeftazS; Asia/Pac, N=100): 4 µg/mL (≈ 7.19 µM)
- MIC90 (E. cloacae CeftazS; Europe, N=183): 4 µg/mL (≈ 7.19 µM)
- MIC90 (E. cloacae CeftazS; L. Amer, N=57): 8 µg/mL (≈ 14.4 µM)
- Cumulative % Inhibition at MIC (E. cloacae CeftazS; MIC 1 μg/ml): 15.3%
- Cumulative % Inhibition at MIC (E. cloacae CeftazS; MIC 2 μg/ml): 70.5%
- Cumulative % Inhibition at MIC (E. cloacae CeftazS; MIC 4 μg/ml): 93.3%
- Cumulative % Inhibition at MIC (E. cloacae CeftazS; MIC 8 μg/ml): 95.6%
- Cumulative % Inhibition at MIC (E. cloacae CeftazS; MIC 16 μg/ml): 97.8%
- Cumulative % Inhibition at MIC (E. cloacae CeftazS; MIC ≤0.5 μg/ml, listed as head image P00014): 0.5%
- Cumulative % Inhibition at MIC (E. cloacae CeftazS; MIC ≥32 μg/ml): 100%
- MIC90 (E. cloacae CeftazS; N America, N=210): 4 µg/mL (≈ 7.19 µM)
- MIC90 (E. faecalis VS; Asia/Pac, N=214): 0.5 µg/mL (≈ 0.898 µM)
- MIC90 (E. faecalis VS; Europe, N=669): 0.25 µg/mL (≈ 0.449 µM)
- MIC90 (E. faecalis VS; L. Amer, N=290): 0.25 µg/mL (≈ 0.449 µM)
- Cumulative % Inhibition at MIC (E. faecalis VS; MIC 1 μg/ml): 99.9%
- Cumulative % Inhibition at MIC (E. faecalis VS; MIC 2 μg/ml): 100%
- Cumulative % Inhibition at MIC (E. faecalis VS; MIC ≤0.5 μg/ml, listed as head image P00001): 99.3%
- MIC90 (E. faecalis VS; N America, N=863): 0.5 µg/mL (≈ 0.898 µM)
- MIC90 (A. baumanii; Asia/Pac, N=275): 4 µg/mL (≈ 7.19 µM)
- MIC90 (A. baumanii; Europe, N=145): 4 µg/mL (≈ 7.19 µM)
- MIC90 (A. baumanii; L. Amer, N=275): 4 µg/mL (≈ 7.19 µM)
- MIC90 (A. baumanii; N America, N=154): 8 µg/mL (≈ 14.4 µM)
- range of MICs (N <10, shown instead of MIC90) (Acinetobacter spp; Asia/Pac): 0.06-2
- MIC90 (Acinetobacter spp; Europe, N=43): 4 µg/mL (≈ 7.19 µM)
- range of MICs (N <10, shown instead of MIC90) (Acinetobacter spp; L. Amer): 0.03-4
- MIC90 (Acinetobacter spp; N America, N=42): 2 µg/mL (≈ 3.59 µM)
- MIC90 (Enterobacter spp; Asia/Pac, N=52): 16 µg/mL (≈ 28.7 µM)
- MIC90 (Enterobacter spp; Europe, N=82): 4 µg/mL (≈ 7.19 µM)
- MIC90 (Enterobacter spp; L. Amer, N=42): 4 µg/mL (≈ 7.19 µM)
- MIC90 (Enterobacter spp; N America, N=101): 4 µg/mL (≈ 7.19 µM)
